Our source for the IC50 values is patent US20250163059A1, “HETEROCYCLIC KINASE INHIBITORS” (Incyte Corporation, priority 2023, published 2025).

Where only a bound is given, the exact number is not on record here.

In experiment [1] the target is T1, catalytic domain (JH1) of JAK2 protein (Homo sapiens, UniProt O60674).
T1 construct: phosphorylated on the tyrosine residue by catalytic domain (JH1) of JAK2 protein; purchased BPS 40450
The experiment can be described thus: JAK2 (JH1) Enzymatic Assay at ATP=Km (30 μM), TR-FRET. The experiment is classed as biochemical. As to conditions: 30 μM ATP (=Km), 60 min at 25° C., read-out: V617F ENZ 30 μM. The method, then:
Example A. JAK2 (JH1) Enzymatic Assay at ATP=Km (30 μM)
Inhibitor potency was determined in TR-FRET assay, which measures HTRF signal generated as a result of Eu-labeled anti-phosphotyrosine antibody binding to Biotin-labeled peptide, phosphorylated on the tyrosine residue by catalytic domain (JH1) of JAK2 protein in the presence of ATP-Mg and Allophycocyanin-streptavidin (APC-SA). JH1 domain of JAK2 protein was purchased from BPS (#40450), Eu-W1204-labeled Anti-Phosphotyrosine Antibody (PY-20) and SureLight Allophycocyanin-streptavidin were purchased from PerkinElmer (#AD0067 and #AD0201). Peptide Biot-EQEDEPEGDYFEWLEES-amide (SEQ ID NO.: 1) was purchased from Quality Controlled Biochemicals, MA (Q307-166). Assay buffer consisted of 50 mM Tris, pH=7.5, 10 mM MgCl2, 0.01% Brij-35, 0.1% BSA, 1 mM EGTA, 5% Glycerol and 5 mM DTT. To assess the inhibition of the enzymatic activity, compound was serially diluted in DMSO and a volume of 0.1 μL was transferred to the wells of a black regular volume 384-well plate (Greiner #781076) using Echo Liquid Handler (Labcyte Inc.). Positive and Negative control wells contained 0.1 μL of DMSO.
Enzyme (catalytic domain JH1 of JAK2) was diluted in assay buffer, and the Multidrop Combi liquid handler (Thermo Scientific) was used to dispense 10 μL to each well (except positive control wells, to which 10 μL of assay buffer were dispensed instead of protein).
Plate was centrifuged and reaction was started by addition of 10 μL of substrate solution containing biotinylated peptide and ATP to all wells. Plate was again centrifuged and enzymatic reaction was allowed to proceed for 60 min. at 25° C. Final concentrations in the assay were as follows: 0.02 nM protein, 30 uM ATP, 0.5 uM biotinylated peptide. Reaction was stopped by addition of 10 μL of solution, containing 45 mM EDTA, 144 nM APC/225 nM Streptavidin, and 4.5 nM Eu-Ab in detection buffer: 50 mM Tris, pH=7.8, 150 mM NaCl, 0.5 mg/ml BSA.
Plate was centrifuged and incubated for 30 min. at room temperature. HTRF signal was measured on PHERAstar plate reader instrument (BMG Labtech) with excitation at 337 nm and emissions at 620 nm and 665 nm. Data analysis tools integrated in Genedata Screener software were used to analyze the results. Raw data was normalized to percent of vehicle (DMSO) Negative control, after subtracting no-enzyme Positive inhibitor control. The IC50 values were derived by fitting the data to a four parameter logistic equation producing a sigmoidal dose-response curve using the following equation: Y=Bottom+(Top−Bottom)/(1+10^((Log IC50−X)*Hill slope)) where X is the logarithm of inhibitor concentration and Y is the response.

Experiment [2] has as its target T2, pseudo-kinase domain (JH2) of human V617F mutant JAK2 (Homo sapiens, UniProt O60674, F794H/V617F/W659A/W777A).
T2 construct: pseudo-kinase domain (JH2, amino-acids 536-812 with 3 surface mutations W659A, W777A, F794H); purchased BPS Bioscience 79498; host or cells: baculovirus expression system
Put plainly: JAK2 LanthaScreen JH2-V617F Binding Assay. The settings on record: 50 nM Fluorescent JAK2-JH2 Tracer, 1 hour at 25° C., read-out: JH2 BIND V617F. The method, then:
Example B. JAK2 LanthaScreen JH2-V617F Binding Assay
JAK2 JH2-V617F binding assay utilizes pseudo-kinase domain (JH2, amino-acids 536-812 with 3 surface mutations W659A, W777A, F794H) of human V617F mutant JAK2 expressed as C-terminal His-Avi-tagged, biotinylated protein in a baculovirus expression system (BPS Bioscience, Catalog #79498). The assay was conducted in black 384-well polystyrene plates in a final reaction volume of 20 μL. JAK2 JH2-V617F (0.26 nM) was incubated with compounds (100 nL serially diluted in DMSO) in the presence of 50 nM Fluorescent JAK2-JH2 Tracer (MedChem Express Catalog #HY-102055) and 0.25 nM Streptavidin-Tb cryptate (Cisbio Part #610SATLB) in assay buffer (50 mM Tris, pH=7.5, 10 mM MgCl2, 0.01% Brij-35, 0.1% BSA, 1 mM EGTA, 5% Glycerol and 5 mM DTT). Non-specific binding was accessed in the presence of 2 mM ATP. After incubation for 1 hour at 25° C., LanthaScreen signals were read on a PHERAstar FS plate reader (BMG LABTECH). Data was analyzed with IDBS XLfit and GraphPad Prism 5.0 software using a four parameter dose response curve to determine IC50 for each compound.

T1 sequence (O60674 849-1124 limits assumed): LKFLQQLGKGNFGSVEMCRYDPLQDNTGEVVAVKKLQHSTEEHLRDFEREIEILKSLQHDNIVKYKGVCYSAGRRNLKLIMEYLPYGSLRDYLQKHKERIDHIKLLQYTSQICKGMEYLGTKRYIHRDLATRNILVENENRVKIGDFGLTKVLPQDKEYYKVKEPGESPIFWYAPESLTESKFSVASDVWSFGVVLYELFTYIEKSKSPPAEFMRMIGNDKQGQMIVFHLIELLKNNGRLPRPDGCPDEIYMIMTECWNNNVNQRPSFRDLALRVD
T2 sequence (O60674 536-812 V617F/W659A/W777A/F794H): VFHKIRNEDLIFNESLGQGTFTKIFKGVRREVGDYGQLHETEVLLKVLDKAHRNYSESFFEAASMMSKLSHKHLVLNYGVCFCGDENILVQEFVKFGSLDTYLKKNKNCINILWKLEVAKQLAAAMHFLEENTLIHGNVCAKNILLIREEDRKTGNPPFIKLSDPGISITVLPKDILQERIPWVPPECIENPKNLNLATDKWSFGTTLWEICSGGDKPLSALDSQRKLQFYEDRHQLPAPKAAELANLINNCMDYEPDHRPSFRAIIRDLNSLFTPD

Take `CNc1ncc(-c2cccc(-c3cnn(C4CN(Cc5cccc(C(=O)N(C)CC6CC6)n5)C4)c3)c2OC)c2cc(NC(=O)C3CC3)nnc12` [Example 13, 6-((3-(4-(3-(3-(Cyclopropane-carboxamido)-8-(methylamino)pyrido[3,4-c]pyridazin-5-yl)-2-methoxy-phenyl)-1H-pyrazol-1-yl)azetidin-1-yl)methyl)-N-(cyclopropyl-methyl)-N-methyl-picolinamide]: the IC50 in experiment [1] was > 1000 nM; in experiment [2], ≤ 10 nM.

In the case of `CNc1ncc(-c2cccc(-c3cnn(C4CN(Cc5cccc(C(=O)N(C)CC(F)(F)F)n5)C4)c3)c2OC)c2cc(NC(=O)C3CC3)ncc12` [Example 3, 6-((3-(4-(3-(6-(Cyclopropane-carboxamido)-1-(methylamino)-2,7-naphthyridin-4-yl)-2-methoxyphenyl)-1H-pyrazol-1-yl)azetidin-1-yl)methyl)-N-methyl-N-(2,2,2-trifluoroethyl) picolinamide], the IC50 in experiment [1] is > 1000 nM; in experiment [2] it was ≤ 10 nM.

With `CNc1ncc(-c2cccc(-c3cnn(C4CN(C(=O)c5cccc(C(=O)N(C)C)n5)C4)c3)c2OC)c2cc(NC(=O)C3CC3)ncc12` [Example 8, 6-(3-(4-(3-(6-(Cyclopropanecarboxamido)-1-(methylamino)-2,7-naphthyridin-4-yl)-2-methoxyphenyl)-1H-pyrazol-1-yl)azetidine-1-carbonyl)-N,N-dimethylpicolinamide], the IC50 is > 1000 nM in experiment [1] and ≤ 10 nM in experiment [2].

Consider `CNc1ncc(-c2cccc(-c3cnn(C4CN(Cc5cccc(C(=O)N(C)C)n5)C4)c3)c2OC)c2cc(NC(=O)C3CC3)ncc12` [Example 1, 6-((3-(4-(3-(6-(Cyclopropanecarboxamido)-1-(methylamino)-2,7-naphthyridin-4-yl)-2-methoxyphenyl)-1H-pyrazol-1-yl)azetidin-1-yl)methyl)-N,N-dimethylpicolinamide], for which the IC50 was > 1000 nM in experiment [1] and ≤ 10 nM in experiment [2].

`CNc1ncc(-c2cccc(-c3ccc(C(=O)N(C)Cc4ccccn4)nc3)c2OC)c2cc(NC(=O)C3CC3)ncc12` [Example 23, 5-(3-(6-(Cyclopropanecarboxamido)-1-(methylamino)-2,7-naphthyridin-4-yl)-2-methoxyphenyl)-N-methyl-N-(pyridin-2-ylmethyl)picolinamide]: the IC50 in experiment [1] was > 1000 nM; in experiment [2] it was 10 to 100 nM.

Take `CNc1ncc(-c2cccc(-c3cnn(C4CN(Cc5cccc(C(=O)N6CCCC6)n5)C4)c3)c2OC)c2cc(NC(=O)C3CC3)ncc12` [Example 4, N-(5-(2-Methoxy-3-(1-(1-((6-(pyrrolidine-1-carbonyl)pyridin-2-yl)methyl)azetidin-3-yl)-1H-pyrazol-4-yl)phenyl)-8-(methylamino)-2,7-naphthyridin-3-yl)cyclopropane-carboxamide]: the IC50 was > 1000 nM in experiment [1] and ≤ 10 nM in experiment [2].

On to `COc1c(-c2cnn(C3CN(Cc4cccc(C(=O)N5CCCC5)n4)C3)c2)cccc1-c1cnc(N)c2cnc(NC(=O)C3CC3)cc12` [Example 18, N-(8-Amino-5-(2-methoxy-3-(1-(1-((6-(pyrrolidine-1-carbonyl)pyridin-2-yl)methyl)azetidin-3-yl)-1H-pyrazol-4-yl)phenyl)-2,7-naphthyridin-3-yl)cyclopropane-carboxamide], for which the figures for the IC50 in experiment [1] and in experiment [2] were 10 to 100 nM and ≤ 10 nM, respectively.

Turning to `CNc1ncc(-c2cccc(-c3cnn(C4CN(Cc5cccc(C(=O)N(C)C6CC6)n5)C4)c3)c2OC)c2cc(NC(=O)C3CC3)nnc12` [Example 12, 6-((3-(4-(3-(3-(Cyclopropanecarboxamido)-8-(methylamino)pyrido[3,4-c]pyridazin-5-yl)-2-methoxyphenyl)-1H-pyrazol-1-yl)azetidin-1-yl)methyl)-N-cyclopropyl-N-methylpicolinamide], the IC50 in experiment [1] is > 1000 nM; in experiment [2], ≤ 10 nM.

For the compound `COc1c(-c2cnn(C3CN(Cc4cccc(C(=O)N(C)CC(F)(F)F)n4)C3)c2)cccc1-c1cnc(N)c2cnc(NC(=O)C3CC3)cc12` [Example 17, 6-((3-(4-(3-(1-Amino-6-(cyclopropane-carboxamido)-2,7-naphthyridin-4-yl)-2-methoxyphenyl)-1H-pyrazol-1-yl)azetidin-1-yl)methyl)-N-methyl-N-(2,2,2-trifluoroethyl) picolinamide], the IC50 in experiment [1] was 10 to 100 nM; in experiment [2], ≤ 10 nM.

As to `CNc1ncc(-c2cccc(-c3cnn(C4CN(Cc5cccc(S(C)(=O)=O)n5)C4)c3)c2OC)c2cc(NC(=O)C3CC3)ncc12` [Example 6, N-(5-(2-Methoxy-3-(1-(1-((6-(methylsulfonyl)pyridin-2-yl)methyl)azetidin-3-yl)-1H-pyrazol-4-yl)phenyl)-8-(methylamino)-2,7-naphthyridin-3 yl)cyclopropane carboxamide], the figures for the IC50 in experiment [1] and in experiment [2] were > 1000 nM and ≤ 10 nM, respectively.
